Patent US7388017B2, “Inhibitors of serine proteases, particularly hepatitis C virus NS3 protease” (Vertex Pharmaceuticals Incorporated, priority 1996, dated 2008)
Starred links: 1 amine or outer side, 2 acyl side, 3 side chain; linkers in the order of their positions; H or OH if unused. Non-standard residues stand in square brackets, D forms with d. Residues, ends and D or L forms follow the SMILES beside them. Groups on a side chain read outwards from the residue. ξ: configuration not given here. *: point of attachment. ξ(3-Amino-2-oxopentanoyl) = CCC(N[*:1])C(=O)C(=O)[*:2]; Acetyl(3-pyridyl) = O=C(Cc1cccnc1)*; Pyrazinecarbonyl = O=C(c1cnccn1)*; X41 = CCC(N*)C(=O)c1nc2ccccc2o1; pNA = O=[N+]([O-])c1ccc(N*)cc1; 3Pal = N[CH](Cc1cccnc1)C(=O)O; NH(4-picolyl) = c1cc(CN*)ccn1; X28 = c1ccc(Oc2cccc(N*)c2)cc1; X36 = c1ccc(-c2ccc(C*)cc2)cc1; Hyp = O=C(O)[CH]1C[CH](O)CN1; X25 = c1ccc(-c2nc(C*)no2)cc1; Nicotinoyl = O=C(c1cccnc1)*; X11 = c1ccc(-c2ccccc2C*)cc1; X24 = FC(F)(F)c1ccc(C*)cc1; X3 = c1ccc(-c2ccccc2N*)cc1; X12 = CCC(N*)C(=O)c1nccs1; X15 = Clc1cc2c(cc1C*)OCO2; X32 = Clc1ccc(N*)c(Cl)c1; X14 = Clc1ccc(N*)cc1Cl; X46 = Clc1cccc(Cl)c1N*; Abu = CC[CH](N)C(=O)O; CO = O=C([*:1])[*:2]; X13 = COc1ccccc1CN*; Bn = c1ccc(C*)cc1

Each compound was assayed against T1, HCV NS3 protease (Hepatitis C virus genotype 1a, UniProt P27958) (assay: Enzyme inhibition of HCV NS3 serine protease (cleavage of peptide substrate / EDVV AbuC-p-nitroanilide, with or without NS4A)). Details: Enzyme inhibition data; Ki from rate vs [inhibitor] plots, Morrison tight binding competitive inhibition fit; 30 C, pH 7.8; read-out: Ki.
T1 construct: more particularly HCV NS3 proteases
T1 sequence (P27958 1027-1208): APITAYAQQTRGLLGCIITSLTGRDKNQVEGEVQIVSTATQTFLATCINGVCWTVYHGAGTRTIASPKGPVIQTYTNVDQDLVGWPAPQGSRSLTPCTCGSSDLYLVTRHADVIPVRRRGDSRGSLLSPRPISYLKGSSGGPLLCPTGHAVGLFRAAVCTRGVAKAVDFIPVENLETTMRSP
Format: biochemical
Description: Cleavage reactions were quenched by the addition of an equal volume of a mixture of 10% TFA:acetonitrile (1:1) and activity was assessed on a reversed phase HPLC column (Rainin C18 Microsorb-MV, […], 4.6×250 mm; 0-50% acetonitrile, 0.1% TFA@ 3.33% min) using a Hewlett Packard 1050 instrument with auto-injection and diode array detection at 210 nm and 280 nm (where appropriate). Peptide elution fragments were collected and identified by mass spectrometry and N-terminal sequence analysis. Fragment identity and concentration was further verified by authentic, synthesized products. Initial rates of cleavage were determined at <20% substrate conversion and catalytic parameters were determined assuming Michaelis-Menten kinetics using the MultiFit program (Day Computing, Cambridge, Mass.).
Spectrophotometric assays were run in a 96-well microtiter plate at 30 C, using a SpectraMax 250 reader (Molecular Devices, Sunnyvale, Calif.) with kinetic capability. Cleavage of EDVV AbuC-p-nitroanilide (5A-pNA) substrate was performed with or without […] in the same buffer used for HPLC assays at 30 C, and pNA release was monitored at 405 nm. The extinction-coefficient of p-nitroaniline is independent of pH at values of 5.5. and above [Tuppy, H., et al., Hoppe-Seyler's Z. Physiol. Chem., 329, pp. 278-288 (1962)]; Raybuck and Luong, unpublished observations).
Kinetic constants for the rapid equilibrium ordered bisubstrate reaction were determined from rate vs [4A], [EDVV AbuC-pNA] data by non-linear least squares fitting to equation 1 [Morrison, J. F. Biochim. Biophys. Acta, 185, pp. 269-286 (1969)] as described in the text. Kii and Kis values for peptidyl inhibitors were determined from rate vs [inhibitor], [substrate] data and fitting to the equation for mixed inhibition: rate=Vmax[S]/{Km(1+[I]/Kis)+[S](1+[I]/Kii)} The commercial program KinetAsyst (StateCollege, Pa.) was used for both procedures. Ki values were calculated from rate vs [inhibitor] plots by a nonlinear least squares fit of the data to the equation of Morrison for tight binding competitive inhibition [Morrison, J. F. Biochim. Biophys. Acta, 185, pp. 269-286 (1969)]. The KineTic program (BioKin Ltd) was used for this procedure.
Ki values are expressed in μM. Category “A” indicates <1 μM inhibition; category “B” indicates 1-100 μM inhibition; category “C” indicates >100 μM.
`CCC(NC(=O)C(CC(C)C)NC(=O)C(NC(=O)C(NC(=O)C(CC(=O)O)NC(=O)C(CCC(=O)O)NC(C)=O)C(C)C)C(C)C)C(=O)C(=O)NCc1ccncc1` (centres unmarked) [Compound 107] (Ac-EDVVL[ξ(3-Amino-2-oxopentanoyl)]-{NH(4-picolyl)}; configuration not given here) was tested, and the Ki was under 1 µM.
Work on `CCC(C=O)NC(=O)C1CC(OCc2ccccc2-c2ccccc2)CN1C(=O)C(NC(=O)C(NC(=O)c1cnccn1)C(C)C)C(C)C` (centres unmarked) [Compound 11] (Pyrazinecarbonyl-VV[Hyp](X11)[Abu]-aldehyde; configuration not given here) yielded a Ki of 1 to 100 µM.
`CCC(C=O)NC(=O)C(CC(C)C)NC(=O)C(NC(=O)C(NC(=O)Cc1cccnc1)C(C)C)C(C)C` (centres unmarked) [Compound 95] ({Acetyl(3-pyridyl)}-VVL[Abu]-aldehyde; configuration not given here) showed a Ki of 1 to 100 µM.
Work on `CCC(NC(=O)C1CC(OCc2ccccc2)CN1C(=O)C(NC(=O)C(NC(=O)c1cnccn1)C(C)C)C(C)C)C(=O)C(=O)CCc1ccccc1` (centres unmarked) [Compound 78] yielded a Ki of 1 to 100 µM.
`CCC(C=O)NC(=O)C1CC(OCc2ccccc2)CN1C(=O)C(NC(=O)c1cc2ccccc2[nH]1)C(C)C` (centres unmarked) [Compound 154] showed a Ki of 1 to 100 µM.
Compound `CCC(C=O)NC(=O)C1CC(OCc2ccccc2)CN1C(=O)C(NC(=O)Cc1ccsc1)C(C)C` (centres unmarked) [Compound 163] has a Ki of over 100 µM.
With `CCC(C=O)NC(=O)C1CC(OCc2ccc(-c3ccccc3)cc2)CN1C(=O)C(NC(=O)C(NC(=O)c1cnccn1)C(C)C)C(C)C` (centres unmarked) [Compound 2] (Pyrazinecarbonyl-VV[Hyp](X36)[Abu]-aldehyde; configuration not given here) the Ki was 1 to 100 µM.
Work on `CCC(C=O)NC(=O)C1CC(OCc2ccc(C(F)(F)F)cc2)CN1C(=O)C(NC(=O)C(NC(=O)c1cnccn1)C(C)C)C(C)C` (centres unmarked) [Compound 17] (Pyrazinecarbonyl-VV[Hyp](X24)[Abu]-aldehyde; configuration not given here) yielded a Ki of 1 to 100 µM.
Compound `CCC(NC(=O)C(CC(C)C)NC(=O)C(NC(=O)C(NC(=O)C(CC(=O)O)NC(=O)C(CCC(=O)O)NC(C)=O)C(C)C)C(C)C)C(=O)C(=O)O` (centres unmarked) [Compound 101] (Ac-EDVVL-{ξ(3-Amino-2-oxopentanoyl)}; configuration not given here) has a Ki of under 1 µM.
`CCC(C=O)NC(=O)C1CC(NC(=O)OCc2ccccc2)CN1C(=O)C(NC(=O)C(NC(=O)c1cnccn1)C(C)C)C(C)C` (centres unmarked) [Compound 60] gave a Ki of over 100 µM.
`CCC(C=O)NC(=O)C1CC(OCc2ccccc2)CN1C(=O)C(NC(=O)C(OC)c1ccccc1)C(C)C` (centres unmarked) [Compound 164] gave a Ki of over 100 µM.
Work on `CCC(C=O)NC(=O)C1CC(OCc2noc(-c3ccccc3)n2)CN1C(=O)C(NC(=O)C(NC(=O)c1cnccn1)C(C)C)C(C)C` (centres unmarked) [Compound 3] (Pyrazinecarbonyl-VV[Hyp](X25)[Abu]-aldehyde; configuration not given here) yielded a Ki of 1 to 100 µM.
`CCC(C=O)NC(=O)C1CC(OC(=O)Nc2ccc(Cl)c(Cl)c2)CN1C(=O)C(NC(=O)C(NC(=O)c1cnccn1)C(C)C)C(C)C` (centres unmarked) [Compound 46] (Pyrazinecarbonyl-VV[Hyp]([CO-X14])[Abu]-aldehyde; configuration not given here) was tested, and the Ki was 1 to 100 µM.
`CCC(C=O)NC(=O)C1CC(OCc2ccccc2)CN1C(=O)C(NC(=O)C(Cc1ccccc1)NC(=O)c1cnccn1)C(C)C` (centres unmarked) [Compound 141] (Pyrazinecarbonyl-FV[Hyp](Bn)[Abu]-aldehyde; configuration not given here) showed a Ki of 1 to 100 µM.
For `CCC(C=O)NC(=O)C1CC(OC(=O)Nc2ccccc2-c2ccccc2)CN1C(=O)C(NC(=O)C(NC(=O)c1cnccn1)C(C)C)C(C)C` (centres unmarked) [Compound 52] (Pyrazinecarbonyl-VV[Hyp]([CO-X3])[Abu]-aldehyde; configuration not given here), the Ki was 1 to 100 µM.
Compound `CCC(C=O)NC(=O)C1CC(OC(=O)Nc2ccc(Cl)cc2Cl)CN1C(=O)C(NC(=O)C(NC(=O)c1cnccn1)C(C)C)C(C)C` (centres unmarked) [Compound 30] (Pyrazinecarbonyl-VV[Hyp]([CO-X32])[Abu]-aldehyde; configuration not given here) has a Ki of 1 to 100 µM.
`CCC(C=O)NC(=O)C1CC(OC(=O)Nc2c(Cl)cccc2Cl)CN1C(=O)C(NC(=O)C(NC(=O)c1cnccn1)C(C)C)C(C)C` (centres unmarked) [Compound 45] (Pyrazinecarbonyl-VV[Hyp]([CO-X46])[Abu]-aldehyde; configuration not given here) was tested, and the Ki was 1 to 100 µM.
For `CCC(C=O)NC(=O)C1CC(OCc2ccccc2)CN1C(=O)C(NC(=O)Cc1ccc(NC(C)=O)cc1)C(C)C` (centres unmarked) [Compound 152], the Ki was over 100 µM.
`CCC(C=O)NC(=O)C1CC(OC(=O)Nc2ccc([N+](=O)[O-])cc2)CN1C(=O)C(NC(=O)C(NC(=O)c1cnccn1)C(C)C)C(C)C` (centres unmarked) [Compound 39] (Pyrazinecarbonyl-VV[Hyp]([CO-pNA])[Abu]-aldehyde; configuration not given here) gave a Ki of 1 to 100 µM.
`CCC(C=O)NC(=O)C1CC(OCc2ccccc2)CN1C(=O)C(NC(=O)c1ccc[nH]1)C(C)C` (centres unmarked) [Compound 153] showed a Ki of 1 to 100 µM.
Work on `CCC(NC(=O)C(CC(C)C)NC(=O)C(NC(=O)C(NC(=O)C(CC(=O)O)NC(=O)C(N)CCC(=O)O)C(C)C)C(C)C)C(=O)c1nccs1` (centres unmarked) [Compound 125] (H-EDVVL-X12; configuration not given here) yielded a Ki of 1 to 100 µM.
In the case of `CCC(NC(=O)C(CC(C)C)NC(=O)C(NC(=O)C(NC(=O)c1cnccn1)C(C)C)C(C)C)C(=O)C(=O)N[C@@H](C)c1ccccc1` (some centres unmarked) [Compound 117], the Ki is reported as 1 to 100 µM.
With `CCC(NC(=O)C(CC(C)C)NC(=O)C(NC(=O)C(NC(=O)c1cnccn1)C(C)C)C(C)C)C(=O)C(=O)NCc1ccccc1OC` (centres unmarked) [Compound 114] the Ki was over 100 µM.
`CCC(C=O)NC(=O)C1CC(OC(=O)Nc2cccc(Oc3ccccc3)c2)CN1C(=O)C(NC(=O)C(NC(=O)c1cnccn1)C(C)C)C(C)C` (centres unmarked) [Compound 53] (Pyrazinecarbonyl-VV[Hyp]([CO-X28])[Abu]-aldehyde; configuration not given here) was tested, and the Ki was 1 to 100 µM.
In the case of `CCC(C=O)NC(=O)C1CC(OCc2cc3c(cc2Cl)OCO3)CN1C(=O)C(NC(=O)C(NC(=O)c1cnccn1)C(C)C)C(C)C` (centres unmarked) [Compound 13] (Pyrazinecarbonyl-VV[Hyp](X15)[Abu]-aldehyde; configuration not given here), the Ki is reported as 1 to 100 µM.
`CCC(C=O)NC(=O)C(CC(C)C)NC(=O)C(NC(=O)C(NC(=O)c1cccnc1)C(C)C)C(C)C` (centres unmarked) [Compound 94] (Nicotinoyl-VVL[Abu]-aldehyde; configuration not given here) showed a Ki of 1 to 100 µM.
In the case of `CCC(C=O)NC(=O)C1CC(OCc2ccccc2)CN1C(=O)C(NC(=O)C(Cc1cccnc1)NC(=O)c1cnccn1)C(C)C` (centres unmarked) [Compound 127] (Pyrazinecarbonyl-[3Pal]V[Hyp](Bn)[Abu]-aldehyde; configuration not given here), the Ki is reported as over 100 µM.
`CCC(NC(=O)C(CC(C)C)NC(=O)C(NC(=O)C(NC(=O)C(CC(=O)O)NC(=O)C(N)CCC(=O)O)C(C)C)C(C)C)C(=O)c1nc2ccccc2o1` (centres unmarked) [Compound 124] (H-EDVVL-X41; configuration not given here) was tested, and the Ki was 1 to 100 µM.
Compound `CCC(NC(=O)C(CC(C)C)NC(=O)C(NC(=O)C(NC(=O)C(CC(=O)O)NC(=O)C(CCC(=O)O)NC(C)=O)C(C)C)C(C)C)C(=O)C(=O)NCc1ccccc1OC` (centres unmarked) [Compound 103] (Ac-EDVVL[ξ(3-Amino-2-oxopentanoyl)]-X13; configuration not given here) has a Ki of under 1 µM.
